# In ChEMBL document CHEMBL5442379, “ASAP - SARS-CoV-2 nsp3 macrodomain single point” (2024):
# Target: Replicase polyprotein 1ab (Severe acute respiratory syndrome coronavirus 2) (UniProt P0DTD1)
# Description: Functional biochemical assay to identify treatments for viral infectious disease that targets SARS-COV-2 nsp3 macrodomain, whereby the mechanism of action displaces an ADP-Ribose modified peptide from the binding site. Utilizing a time-resolved fluorescence method to measure binding by reading the emitted fluorescence intensity in two wavelengths.
smiles,measurement,setting,value
Cn1cc([C@H]2CSCCN2c2ncnc3[nH]ccc23)cn1,inhibition,"Concentration 49.75 uM, Number of replicates 2.0, Standard deviation 2.461 %",-6.49%
same,inhibition,"Concentration 99.5 uM, Number of replicates 2.0, Standard deviation 0.732 %",-3.46%
CC(C)[C@@H](Nc1ncnc2[nH]ccc12)c1nc2ccccc2[nH]1,inhibition,"Concentration 49.75 uM, Number of replicates 2.0, Standard deviation 3.253 %",37.3%
same,inhibition,"Concentration 99.5 uM, Number of replicates 2.0, Standard deviation 1.702 %",52.5%
O=C(NCCn1cncn1)c1cnn2ccc(C3CCN(C(=O)c4ccccc4)CC3)cc12,inhibition,"Concentration 49.75 uM, Number of replicates 2.0, Standard deviation 1.365 %",-3.7%
same,inhibition,"Concentration 99.5 uM, Number of replicates 2.0, Standard deviation 1.7 %",-2.57%
O=C(CNc1ncnc2[nH]ccc12)N1CCc2ccccc21,inhibition,"Concentration 50.0 uM, Number of replicates 2.0, Standard deviation 7.793 %",1.19%
c1nc(N[C@@H]2CCCc3c2cnn3C2CCCC2)c2cc[nH]c2n1,inhibition,"Concentration 49.75 uM, Number of replicates 2.0, Standard deviation 0.354 %",0.884%
same,inhibition,"Concentration 99.5 uM, Number of replicates 2.0, Standard deviation 0.15 %",14.3%
Cc1cccc(C)c1-n1nnnc1CSc1ncnc2[nH]cnc12,inhibition,"Concentration 50.0 uM, Number of replicates 2.0, Standard deviation 4.544 %",6.63%
Nc1c(O)cccc1C(=O)N(CCC(=O)N1CCNCC1)Cc1cccc(Cl)c1,inhibition,"Concentration 49.75 uM, Number of replicates 2.0, Standard deviation 0.165 %",-1.24%
same,inhibition,"Concentration 99.5 uM, Number of replicates 2.0, Standard deviation 3.032 %",1.46%
O=C(CCN(Cc1cccc(Cl)c1)C(=O)c1cnon1)N1CCNCC1,inhibition,"Concentration 49.75 uM, Number of replicates 2.0, Standard deviation 0.478 %",-2.44%
same,inhibition,"Concentration 99.5 uM, Number of replicates 2.0, Standard deviation 0.154 %",-1.08%
O=C(NCc1ccc(Cl)cn1)c1ncnc2[nH]ccc12,inhibition,"Concentration 50.0 uM, Number of replicates 2.0, Standard deviation 1.293 %",-4.96%
same,inhibition,"Concentration 100.0 uM, Number of replicates 2.0, Standard deviation 0.093 %",-2.57%
C[C@@H](NC(=O)c1cnn2ccc(C3CCN(C(=O)c4ccccc4)CC3)cc12)c1cc[nH]n1,inhibition,"Concentration 49.75 uM, Number of replicates 2.0, Standard deviation 1.723 %",-4.99%
same,inhibition,"Concentration 99.5 uM, Number of replicates 2.0, Standard deviation 0.833 %",-2.77%
COc1ccc(Nc2ncnc3[nH]ncc23)c(OC)c1,inhibition,"Concentration 50.0 uM, Number of replicates 2.0, Standard deviation 7.795 %",2.6%
O=C(CCN(Cc1cccc(Cl)c1)C(=O)c1ncccc1Cl)N1CCNCC1,inhibition,"Concentration 49.75 uM, Number of replicates 2.0, Standard deviation 1.117 %",2.75%
same,inhibition,"Concentration 99.5 uM, Number of replicates 2.0, Standard deviation 8.572 %",7.52%
CNC(=O)c1cccc(CNC(=O)c2ncnc3[nH]ccc23)c1,inhibition,"Concentration 50.0 uM, Number of replicates 2.0, Standard deviation 1.029 %",-5.91%
FC(F)(F)c1nnc2n1CCN(c1ncnc3[nH]ccc13)C2,inhibition,"Concentration 49.75 uM, Number of replicates 2.0, Standard deviation 1.459 %",-1.97%
same,inhibition,"Concentration 99.5 uM, Number of replicates 2.0, Standard deviation 0.538 %",-1%
CC(C)[C@H]1CNC(=O)CN1c1ncnc2[nH]ccc12,inhibition,"Concentration 49.75 uM, Number of replicates 2.0, Standard deviation 0.296 %",6.84%
same,inhibition,"Concentration 99.5 uM, Number of replicates 2.0, Standard deviation 2.93 %",17.6%
O=C(c1cccnc1S)N1CCC(c2ccn3ncc(C(=O)N4CCCCC4)c3c2)CC1,inhibition,"Concentration 49.75 uM, Number of replicates 2.0, Standard deviation 1.032 %",32.3%
same,inhibition,"Concentration 99.5 uM, Number of replicates 2.0, Standard deviation 1.028 %",52.6%
O=C(Nc1cnc2[nH]ncc2c1)c1ccc(Oc2cccc(Br)c2)nc1,inhibition,"Concentration 50.0 uM, Number of replicates 2.0, Standard deviation 1.64 %",-0.183%
CC(C)[C@@H](Nc1ncnc2n[nH]cc12)c1cnn(C)c1,inhibition,"Concentration 50.0 uM, Number of replicates 2.0, Standard deviation 1.634 %",63.5%
O=C1CCN(C(=O)c2cnn3ccc(C4CCN(C(=O)c5ccccc5)CC4)cc23)CCN1,inhibition,"Concentration 49.75 uM, Number of replicates 2.0, Standard deviation 0.064 %",-2.4%
same,inhibition,"Concentration 99.5 uM, Number of replicates 2.0, Standard deviation 5.989 %",-7.81%
O=C(O)c1cscc1C(=O)N1CCC(c2ccn3ncc(C(=O)N4CCCCC4)c3c2)CC1,inhibition,"Concentration 50.0 uM, Number of replicates 2.0, Standard deviation 2.729 %",47.7%
same,inhibition,"Concentration 100.0 uM, Number of replicates 2.0, Standard deviation 0.311 %",66.7%
Cn1ncc2ncnc(NCc3ncccc3O)c21,inhibition,"Concentration 50.0 uM, Number of replicates 2.0, Standard deviation 1.081 %",-2.55%
O=S(=O)(NC[C@@H]1CCCCO1)c1cn2c(n1)CCCC2,inhibition,"Concentration 50.0 uM, Number of replicates 2.0, Standard deviation 0.892 %",-5.39%
Cc1nc(NC(=O)[C@@H]2CCCOC2)c2ccnc-2[nH]1,inhibition,"Concentration 50.0 uM, Number of replicates 2.0, Standard deviation 1.269 %",-3.2%
CC(C)c1c[nH]nc1NC(=O)c1ccc(NC(=O)Nc2ccccc2)cc1,inhibition,"Concentration 49.75 uM, Number of replicates 2.0, Standard deviation 3.059 %",6.99%
same,inhibition,"Concentration 99.5 uM, Number of replicates 2.0, Standard deviation 3.555 %",8.5%
O=C(CCN(Cc1cccc(Cl)c1)C(=O)C1(O)CCCC1)N1CCNCC1,inhibition,"Concentration 49.75 uM, Number of replicates 2.0, Standard deviation 1.82 %",-1.21%
same,inhibition,"Concentration 99.5 uM, Number of replicates 2.0, Standard deviation 0.971 %",-1.78%
Cc1cncc(NCc2csc(-c3ccccn3)n2)c1,inhibition,"Concentration 50.0 uM, Number of replicates 2.0, Standard deviation 0.194 %",-5.02%
COCc1cc(CNc2nc3[nH]cnc3c(=O)[nH]2)on1,inhibition,"Concentration 50.0 uM, Number of replicates 2.0, Standard deviation 1.926 %",2.98%
CC(C)[C@@H]1C(=O)NCCN1c1ncnc2[nH]ccc12,inhibition,"Concentration 49.75 uM, Number of replicates 2.0, Standard deviation 1.976 %",61.4%
same,inhibition,"Concentration 99.5 uM, Number of replicates 2.0, Standard deviation 0.754 %",80.7%
c1ccc2sc(CCNc3ncnc4nc[nH]c34)nc2c1,inhibition,"Concentration 50.0 uM, Number of replicates 2.0, Standard deviation 2.493 %",-4.21%
Cc1[nH]c2ncnc(NC(=O)C3CCC(F)(F)CC3)c2c1C,inhibition,"Concentration 50.0 uM, Number of replicates 2.0, Standard deviation 0.519 %",2.15%
O=C(c1cnc[nH]1)N1CCC(c2ccn3ncc(C(=O)N4CCCCC4)c3c2)CC1,inhibition,"Concentration 49.75 uM, Number of replicates 2.0, Standard deviation 1.741 %",20.3%
same,inhibition,"Concentration 99.5 uM, Number of replicates 2.0, Standard deviation 2.598 %",35.3%
O=C(NCc1nc(-c2ccco2)n[nH]1)c1cc2nccn2c(=O)[nH]1,inhibition,"Concentration 50.0 uM, Number of replicates 2.0, Standard deviation 0.515 %",-5.42%
O=C(O)c1ccc2c(c1)ncn2-c1ccc(CNC(=O)c2ncnc3[nH]ccc23)cc1,inhibition,"Concentration 99.5 uM, Number of replicates 2.0, Standard deviation 0.835 %",-4.65%
CCN1CCN(C(=O)c2cnn3ccc(C4CCN(C(=O)c5ccccc5)CC4)cc23)CC1=O,inhibition,"Concentration 49.75 uM, Number of replicates 2.0, Standard deviation 2.605 %",-8.63%
same,inhibition,"Concentration 99.5 uM, Number of replicates 2.0, Standard deviation 4.496 %",-3.46%
O=C1CC[C@H](COC(=O)c2ncnc3[nH]ccc23)CCN1,inhibition,"Concentration 50.0 uM, Number of replicates 2.0, Standard deviation 3.465 %",-7.87%
NS(=O)(=O)c1ccccc1CNc1ncnc2[nH]ccc12,inhibition,"Concentration 50.0 uM, Number of replicates 2.0, Standard deviation 10.219 %",3.66%
O=C(CCCc1cccnc1)Nc1cnc2[nH]ncc2c1,inhibition,"Concentration 50.0 uM, Number of replicates 2.0, Standard deviation 5.838 %",-3.65%
Cn1cc([C@@H](Nc2ncnc3[nH]ccc23)C2CCC2)cn1,inhibition,"Concentration 49.75 uM, Number of replicates 2.0, Standard deviation 3.794 %",78.1%
same,inhibition,"Concentration 99.5 uM, Number of replicates 2.0, Standard deviation 1.201 %",91%
O=C(CCN(Cc1cccc(Cl)c1)C(=O)c1ccc(F)cn1)N1CCNCC1,inhibition,"Concentration 49.75 uM, Number of replicates 2.0, Standard deviation 0.987 %",6.76%
same,inhibition,"Concentration 99.5 uM, Number of replicates 2.0, Standard deviation 1.391 %",6.74%
Cn1cc(Br)c(CNC(=O)c2ccc(NC(=O)Nc3ccccc3)cc2)n1,inhibition,"Concentration 49.75 uM, Number of replicates 2.0, Standard deviation 4.908 %",4.31%
same,inhibition,"Concentration 99.5 uM, Number of replicates 2.0, Standard deviation 1.253 %",1.2%
O=C(Nc1ccccc1)Nc1ccc(C(=O)Nc2ncccc2F)cc1,inhibition,"Concentration 49.75 uM, Number of replicates 2.0, Standard deviation 1.252 %",4.59%
same,inhibition,"Concentration 99.5 uM, Number of replicates 2.0, Standard deviation 5.725 %",10.2%
Cc1ccc2ccccc2c1-c1ncnc2[nH]ccc12,inhibition,"Concentration 49.75 uM, Number of replicates 2.0, Standard deviation 3.409 %",-5.32%
same,inhibition,"Concentration 99.5 uM, Number of replicates 2.0, Standard deviation 3.055 %",-9.1%
O[C@@]1(C(F)(F)F)CCCN(c2ncnc3n[nH]cc23)CC1,inhibition,"Concentration 50.0 uM, Number of replicates 2.0, Standard deviation 1.087 %",-4.14%
CCO[C@@H]1C[C@@H](Nc2ncnc3[nH]ccc23)C12CCOCC2,inhibition,"Concentration 50.0 uM, Number of replicates 2.0, Standard deviation 3.029 %",2.32%
O=C(Nc1ccccc1)Nc1ccc(C(=O)N2CCc3nc[nH]c3C2)cc1,inhibition,"Concentration 49.75 uM, Number of replicates 2.0, Standard deviation 2.91 %",-3.02%
same,inhibition,"Concentration 99.5 uM, Number of replicates 2.0, Standard deviation 5.124 %",-2.38%
O=C(c1ccnc(S)c1)N1CCC(c2ccn3ncc(C(=O)N4CCCCC4)c3c2)CC1,inhibition,"Concentration 49.75 uM, Number of replicates 2.0, Standard deviation 0.749 %",20.2%
same,inhibition,"Concentration 99.5 uM, Number of replicates 2.0, Standard deviation 3.677 %",35.5%
O=C(Cc1ccns1)Nc1ncnc2[nH]cnc12,inhibition,"Concentration 49.75 uM, Number of replicates 2.0, Standard deviation 7.374 %",-9.5%
same,inhibition,"Concentration 99.5 uM, Number of replicates 2.0, Standard deviation 4.303 %",-3.24%
c1ccc2sc([C@@H]3CCCN(c4ncnc5[nH]ccc45)C3)nc2c1,inhibition,"Concentration 50.0 uM, Number of replicates 2.0, Standard deviation 1.364 %",-0.779%
Cc1cccc(Cl)c1-n1sc(=O)n(CC2CC2)c1=O,inhibition,"Concentration 50.0 uM, Number of replicates 2.0, Standard deviation 1.233 %",51.9%
O=C(CCN(Cc1cccc(Cl)c1)C(=O)C1(F)CCCCC1)N1CCNCC1,inhibition,"Concentration 49.75 uM, Number of replicates 2.0, Standard deviation 2.579 %",-3.58%
same,inhibition,"Concentration 99.5 uM, Number of replicates 2.0, Standard deviation 1.426 %",0.185%
CO[C@@H](CNc1ncnc2[nH]ccc12)c1cccc(Cl)c1,inhibition,"Concentration 50.0 uM, Number of replicates 2.0, Standard deviation 2.381 %",4.1%
same,inhibition,"Concentration 100.0 uM, Number of replicates 2.0, Standard deviation 2.011 %",14.2%
